Consider 14 compounds from ChEMBL document CHEMBL1201862, “PubChem BioAssay data set” (2004).

What is called AC50 is the concentration at which the activity in the assay is half-maximal.

The target in assay [1] is T1, Corticotropin-releasing factor receptor 2/Corticotropin-releasing factor-binding protein (Homo sapiens, UniProt P24387+Q13324).
T1 sequence (Q13324 whole entry): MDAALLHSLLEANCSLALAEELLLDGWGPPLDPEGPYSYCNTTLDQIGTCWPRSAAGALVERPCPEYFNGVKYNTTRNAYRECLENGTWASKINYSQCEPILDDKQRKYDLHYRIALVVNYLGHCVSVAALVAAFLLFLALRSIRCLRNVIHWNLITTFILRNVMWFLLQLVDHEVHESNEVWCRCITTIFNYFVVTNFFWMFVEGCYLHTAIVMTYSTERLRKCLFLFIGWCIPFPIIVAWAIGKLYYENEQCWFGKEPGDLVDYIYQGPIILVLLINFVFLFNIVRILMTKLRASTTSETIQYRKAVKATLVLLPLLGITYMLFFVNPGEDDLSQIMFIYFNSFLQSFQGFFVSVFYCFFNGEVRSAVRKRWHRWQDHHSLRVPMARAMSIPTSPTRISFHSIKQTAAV
T1 sequence (P24387 whole entry): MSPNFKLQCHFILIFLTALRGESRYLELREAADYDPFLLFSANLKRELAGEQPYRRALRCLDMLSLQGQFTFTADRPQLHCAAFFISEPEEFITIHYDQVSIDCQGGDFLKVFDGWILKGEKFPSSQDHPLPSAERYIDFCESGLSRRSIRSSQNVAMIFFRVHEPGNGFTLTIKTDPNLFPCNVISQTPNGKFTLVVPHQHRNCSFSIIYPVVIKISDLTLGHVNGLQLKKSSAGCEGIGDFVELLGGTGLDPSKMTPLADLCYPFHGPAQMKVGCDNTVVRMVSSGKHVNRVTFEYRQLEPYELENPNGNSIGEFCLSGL
Description: Dose Response confirmation of uHTS hits for small molecule antagonists of the CRF-binding protein and CRF-R2 receptor complex. In kind it is functional. The note with it: read-out: IC50_Mean.

Assay [2] can be described thus: CRF-BP/CRF-R2 complex antagonists, dose response, cell-based, uHTS hits, 384-well (AID 651639). Format: functional, Homo sapiens. The note with it: read-out: IC50_Mean.
The target of assay [3] is T1, Corticotropin-releasing factor receptor 2/Corticotropin-releasing factor-binding protein. Description: activators of CRF receptor 2 with binding protein – uHTS hits, confirmation (AID 602473). In kind it is functional. The following applies: read-out: EC50_Mean.
Assay [4] can be described thus: AlphaScreen signal interference compounds, dose response, artefact control for ARNT-TACC3 interaction inhibitor project, biochemical, luminescence, cherry-pick (AID 651705).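 Note: AlphaScreen bead proximity signal that flags compounds interfering with the detection technology; potency reflects signal decrease which marks the compound as an assay artifact.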 In kind it is functional. For orientation: Bead proximity is the source of the signal in Alpha formats.
In assay [5] the target is T2, Probable nicotinate-nucleotide adenylyltransferase (Staphylococcus aureus (strain N315), UniProt P65502). Format: functional, Staphylococcus aureus subsp. aureus N315. The note with it: read-out: IC50_Mean.
T2 sequence (P65502 whole entry): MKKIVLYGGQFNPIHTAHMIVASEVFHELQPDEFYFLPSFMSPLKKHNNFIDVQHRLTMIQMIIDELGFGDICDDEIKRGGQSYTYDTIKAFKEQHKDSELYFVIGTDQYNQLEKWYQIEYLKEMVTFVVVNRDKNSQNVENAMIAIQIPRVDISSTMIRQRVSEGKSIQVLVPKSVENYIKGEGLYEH
Assay [6] addresses T2, Probable nicotinate-nucleotide adenylyltransferase. In kind it is functional, Staphylococcus aureus subsp. aureus N315.
Assay [7] deals with T3, Tyrosine-protein phosphatase non-receptor type 11 (Homo sapiens, UniProt Q06124).
T3 sequence (Q06124 whole entry): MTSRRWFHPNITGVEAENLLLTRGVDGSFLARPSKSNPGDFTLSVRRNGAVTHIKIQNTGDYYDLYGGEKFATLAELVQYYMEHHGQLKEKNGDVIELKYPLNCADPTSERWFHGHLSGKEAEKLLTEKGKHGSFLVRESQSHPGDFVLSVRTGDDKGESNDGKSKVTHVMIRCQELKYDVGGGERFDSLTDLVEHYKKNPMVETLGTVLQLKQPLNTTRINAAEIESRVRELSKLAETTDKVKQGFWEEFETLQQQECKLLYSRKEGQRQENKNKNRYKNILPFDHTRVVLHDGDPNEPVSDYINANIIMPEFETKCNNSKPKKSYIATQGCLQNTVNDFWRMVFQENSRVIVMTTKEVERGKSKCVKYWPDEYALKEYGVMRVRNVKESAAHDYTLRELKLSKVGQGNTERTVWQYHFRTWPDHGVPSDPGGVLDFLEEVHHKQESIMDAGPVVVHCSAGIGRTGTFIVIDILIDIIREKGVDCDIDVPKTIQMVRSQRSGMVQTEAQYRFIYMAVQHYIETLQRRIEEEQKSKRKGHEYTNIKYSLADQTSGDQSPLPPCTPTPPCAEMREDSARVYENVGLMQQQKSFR
Description: SHP2 phosphatase inhibition, dose response, selectivity assay for STEP inhibitor project, biochemical (AID 602367). The note with it: read-out: IC50_Mean. Format: functional.

Assay [8] concerns the target T4, Tyrosine-protein phosphatase non-receptor type 5 (Homo sapiens, UniProt P54829).
T4 sequence (P54829 whole entry): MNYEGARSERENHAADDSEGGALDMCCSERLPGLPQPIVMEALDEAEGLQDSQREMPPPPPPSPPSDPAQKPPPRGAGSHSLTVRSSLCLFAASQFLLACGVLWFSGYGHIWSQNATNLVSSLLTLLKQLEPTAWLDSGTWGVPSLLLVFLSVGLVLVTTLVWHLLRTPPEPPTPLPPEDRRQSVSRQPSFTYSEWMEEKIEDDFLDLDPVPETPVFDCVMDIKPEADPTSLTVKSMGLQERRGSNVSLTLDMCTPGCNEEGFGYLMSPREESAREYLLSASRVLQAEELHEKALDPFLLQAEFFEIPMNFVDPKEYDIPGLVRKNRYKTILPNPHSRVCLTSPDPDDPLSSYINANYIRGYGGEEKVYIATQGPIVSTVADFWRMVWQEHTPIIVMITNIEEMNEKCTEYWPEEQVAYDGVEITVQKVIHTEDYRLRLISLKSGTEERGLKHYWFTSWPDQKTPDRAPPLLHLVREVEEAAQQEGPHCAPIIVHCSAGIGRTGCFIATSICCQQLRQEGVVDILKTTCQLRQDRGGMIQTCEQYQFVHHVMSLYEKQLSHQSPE
Description: STEP phosphatase inhibitors, confirmation, biochemical, fluorescence intensity, uHTS hits (AID 602372). In kind it is functional. The note with it: read-out: IC50_Mean.

For assay [9], the target named is Dual specificity protein phosphatase 3 (Homo sapiens, UniProt P51452). The assay is described as follows: VHR phosphatase inhibition, dose response, selectivity assay for STEP inhibitor project, biochemical (AID 602374). The following applies: read-out: IC50_Mean. Format: functional.
Chain of Dual specificity protein phosphatase 3 (P51452 whole entry): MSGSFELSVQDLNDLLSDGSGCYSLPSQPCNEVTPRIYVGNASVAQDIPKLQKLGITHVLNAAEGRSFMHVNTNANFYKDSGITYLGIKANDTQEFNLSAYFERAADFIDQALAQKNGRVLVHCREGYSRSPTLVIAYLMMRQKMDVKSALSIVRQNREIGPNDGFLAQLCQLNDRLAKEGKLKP
Another assay concerns Streptococcus. Description: Group A Streptococcus viability loss, dose response, counter-screen for streptokinase expression inhibitor project, luminescence, BacTiterGlo (AID 1915).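 Note: potency for reduction of bacterial viability or growth.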 In kind it is functional, organism-based. For orientation: Counterscreens check selectivity or assay interference.
Assay [10] addresses T5, Low molecular weight phosphotyrosine protein phosphatase (Homo sapiens, UniProt P24666).
T5 sequence (P24666 whole entry): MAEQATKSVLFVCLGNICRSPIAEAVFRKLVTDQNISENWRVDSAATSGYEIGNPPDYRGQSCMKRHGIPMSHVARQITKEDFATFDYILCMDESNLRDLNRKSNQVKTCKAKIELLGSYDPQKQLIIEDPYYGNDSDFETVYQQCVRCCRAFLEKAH
In kind it is functional. The following applies: read-out: IC50_Mean.

Assay [11] has as its system Streptococcus sp. 'group A'. The assay is described as follows: growth inhibition of control SK(-) GAS strain, dose response, counter-screen for streptokinase expression inhibitor project, luminescence, kanamycin, BacTiterGlo, confirmation (AID 1900). Format: functional, organism-based.
Assay [12] concerns the target T6, Aryl hydrocarbon receptor (Homo sapiens, UniProt P35869).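 Note: confirmatory quantitative high-throughput screen measuring activation of the AhR signaling pathway.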
T6 sequence (P35869 whole entry): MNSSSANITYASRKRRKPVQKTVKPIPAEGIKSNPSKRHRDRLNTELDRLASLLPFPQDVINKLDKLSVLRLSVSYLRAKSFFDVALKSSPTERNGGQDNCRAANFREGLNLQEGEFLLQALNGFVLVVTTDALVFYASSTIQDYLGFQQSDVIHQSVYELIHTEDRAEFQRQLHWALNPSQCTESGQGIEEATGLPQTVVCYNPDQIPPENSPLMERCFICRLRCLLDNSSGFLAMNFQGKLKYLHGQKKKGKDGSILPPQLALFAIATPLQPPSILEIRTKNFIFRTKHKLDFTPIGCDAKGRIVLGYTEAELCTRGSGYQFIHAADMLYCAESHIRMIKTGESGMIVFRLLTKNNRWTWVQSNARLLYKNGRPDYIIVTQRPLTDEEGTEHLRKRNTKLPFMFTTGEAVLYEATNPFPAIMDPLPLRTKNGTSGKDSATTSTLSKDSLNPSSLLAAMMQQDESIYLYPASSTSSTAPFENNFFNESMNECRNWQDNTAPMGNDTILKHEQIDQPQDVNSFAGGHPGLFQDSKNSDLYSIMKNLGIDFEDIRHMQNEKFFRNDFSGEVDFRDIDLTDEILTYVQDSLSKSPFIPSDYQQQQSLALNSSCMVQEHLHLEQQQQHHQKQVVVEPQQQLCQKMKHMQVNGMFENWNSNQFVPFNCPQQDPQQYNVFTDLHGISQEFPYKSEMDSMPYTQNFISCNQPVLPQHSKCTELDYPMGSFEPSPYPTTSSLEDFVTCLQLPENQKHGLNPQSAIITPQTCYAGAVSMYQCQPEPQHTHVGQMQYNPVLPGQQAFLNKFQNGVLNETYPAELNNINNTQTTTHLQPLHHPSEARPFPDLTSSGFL
The note with it: Potency.

For a further assay, the target named is T7, Interleukin-8 (Homo sapiens, UniProt P10145).
T7 sequence (P10145 whole entry): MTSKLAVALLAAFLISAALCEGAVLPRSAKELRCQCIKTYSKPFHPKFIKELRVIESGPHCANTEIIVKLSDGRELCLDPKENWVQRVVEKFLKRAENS
Description: Dose Response confirmation of uHTS small molecule hits for cystic fibrosis induced NFkb Inhibitors in a PAF-induced IL8 counterscreen. The note with it: read-out: IC50_Mean. Format: functional.

Assay [13] concerns the target T8, Adenosylmethionine-8-amino-7-oxononanoate aminotransferase (Mycobacterium tuberculosis, UniProt P9WQ81).
T8 sequence (P9WQ81 whole entry): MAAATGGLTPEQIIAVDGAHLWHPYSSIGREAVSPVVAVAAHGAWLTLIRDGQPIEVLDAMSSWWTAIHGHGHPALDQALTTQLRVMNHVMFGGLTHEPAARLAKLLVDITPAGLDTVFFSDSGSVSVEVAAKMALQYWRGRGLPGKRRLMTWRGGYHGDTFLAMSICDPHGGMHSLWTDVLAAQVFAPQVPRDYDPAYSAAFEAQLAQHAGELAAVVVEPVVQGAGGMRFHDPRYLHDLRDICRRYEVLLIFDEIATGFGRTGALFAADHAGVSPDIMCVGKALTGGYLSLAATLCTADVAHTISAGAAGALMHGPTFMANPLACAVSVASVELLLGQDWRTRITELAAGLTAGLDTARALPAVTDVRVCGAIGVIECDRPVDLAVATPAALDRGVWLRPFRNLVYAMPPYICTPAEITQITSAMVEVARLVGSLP
The assay is described as follows: Mycobacterium tuberculosis BioA enzyme inhibitor Measured in Biochemical System Using Plate Reader - 2163-02_Inhibitor_Dose_CherryPick_Activity. Format: functional, Mycobacterium tuberculosis UT205.

Molecules are shown by their SMILES. Activity calls are given as the source filed them.

Consider `CCOc1ccc(S(=O)(=O)n2ccc(C)n2)c2ccccc12`, for which the IC50 in assay [1] was < 0.368 µM (active); in [2] it was 11.7 µM (active). Besides, the EC50 in [3] is 21.2 µM (active).
On to `COc1ccc(C(=O)Oc2cccc3cccnc23)cc1[N+](=O)[O-]`, for which, in assay [4], the AC50 is 135 µM (active).
In the case of `O=C(Nc1nnc(C2=COCCO2)o1)c1ccc(Cl)cc1`, the AC50 in assay [4] is 85.8 µM (active).
As to `Cc1ccc(-n2nc3c(c2NC(=O)/C=C\c2ccc4c(c2)OCO4)CSC3)c(C)c1`, the IC50 in assay [5] was 21.5 µM (active); in assay [6], 5.88 µM (active).
On to `CN1CCC2(CC1)N=C(c1ccc(F)cc1)C(=S)N2`, for which the IC50 is 8.94 µM (active) in assay [7], 41.6 µM (inactive) in assay [8] and 2.69 µM (active) in assay [9].
`C=CC1=C(C(=O)O)N2C(=O)C(NC(=O)Cc3ccccc3)C2SC1` (centres undefined): the EC50 was 0.269 µM (active) in the assay on Streptococcus and 0.169 µM (active) in [11]. Further, the IC50 in [7] was 4.42 µM (active); in assay [8] it was 52.9 µM (inactive); in [10] it was 42.8 µM (inactive); in assay [9], 7.17 µM (active).
For `N#Cc1ccsc1NC(=O)c1cccc([N+](=O)[O-])c1`, the IC50 in [1] is 3.12 µM (active); in [2] it was > 20 µM (inactive). The EC50 in [3] is 4.08 µM (active).
Consider `Cc1ccc(S(=O)(=O)N2CCCCC2)cc1C(=O)N(CCc1ccccc1)Cc1ccccc1`, for which the IC50 was 1.19 µM (active) in assay [1] and 19.3 µM (active) in [2]. In addition, the EC50 in [3] is > 53 µM (inactive).
Turning to `CCNc1nc(NCC)nc(SC)n1`, the AC50 in assay [12] was 0.447 µM (inconclusive).
On to `C#CCN(C[C@@H]1[C@@H](OC(=O)NC2CC2)[C@@H](OC(=O)NC2CC2)Cn2c(=O)ccc(=O)n21)S(=O)(=O)c1ccc(C)cc1`, for which, at Interleukin-8, the IC50 is 6.06 µM (active).
`CN1c2ccc(-c3cccc(F)c3)cc2[C@H]2[C@H](CCN2C(=O)c2ccc3c(c2)OCO3)[C@H]1CO`: the AC50 in assay [13] was 0.075 µM (active).
The same measure, in the same setting: next, `CO[C@H]1CN(C)C(=O)c2ccc(NC(C)=O)cc2OC[C@@H](C)N(C(=O)C2CCCCC2)C[C@H]1C`: 6.6 µM (active); `Cc1c(NC(=O)c2cc3ccccc3o2)cccc1-n1cnnn1`: 6.18 µM (active).
For `Nc1ccccc1C(=O)NNC(=O)/C(O)=C/C(=O)c1ccccc1`, the IC50 is 12 µM (active) in assay [5] and 4.63 µM (active) in assay [6].
